Data on three compounds can be found in US8846671B2, “Heterocyclic alkynyl benzene compounds and medical compositions and uses thereof” (Guangzhou Institute of Biomedicine and Health, Chinese …, priority 2010, dated 2014).

For data set [1], the system named is cells carrying c-KIT D816V. To be noted: cited from earlier work.
Data set [2] concerns K562 (human chronic myelogenous leukemia cell line). The data set can be described thus: tumor cell proliferation, MTT or CCK8 assay, 72 h incubation. In kind it is cell-based. The conditions noted are these: K562, 72 h, MTT or CCK8, nM, read-out: IC50 on tumor cell proliferation, K562. In a few lines: (§1)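 Leukemia cell lines were exposed to compounds at 1×10^−10˜1×10^−5M for 72 h. Proliferation was read by MTT (570 nm) or CCK8 (450/650 nm) after a further 4 h incubation. IC50 values were calculated from inhibition of proliferation.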
(Tetrazolium dyes change colour on reduction, which living cells bring about.)

In data set [3] the test system is L78 (Lung cancer cell line). The description is as above. In kind it is cell-based. To be noted: Homo sapiens, MTT or CCK8, nM, read-out: IC50 on tumor cell proliferation, L78.
Data set [4] has as its system MEG-01 (Human megakaryoblastic leukaemia cell line). Described as above. In kind it is cell-based. To be noted: MEG-01, 72 h, MTT or CCK8, nM, read-out: IC50 on tumor cell proliferation, MEG-01. The gist of the method:
as §1

Data set [5] has as its system MOLT-4 (Human acute lymphoblastic leukemia cell line). The description is as above. In kind it is cell-based. The conditions noted are these: MOLT-4, 72 h, MTT or CCK8, nM, read-out: IC50 on tumor cell proliferation, MOLT-4. The gist of the method: as §1
For a further data set, the system named is U937 Cell line. The description is as above. In kind it is cell-based. To be noted: Homo sapiens, U-937; 72 h, MTT or CCK8; nM; read-out: IC50 on tumor cell proliferation, U937. In a few lines:
as §1

For data set [6], the target named is BAF3-T315I cells (Ba/F3 cell line stably expressing BCR/ABL T315I) (Homo sapiens, UniProt P00519, T315I, cells depend on it). Described as above. In kind it is cell-based, mice. To be noted: Ba/F3 expressing BCR/ABL T315I, 72 h, Table 1; read-out: IC50 on tumor cell proliferation, BAF3-T315I cells.
Data set [7] deals with K562R cells (imatinib-resistant cell line). The description is as above. In kind it is cell-based. To be noted: Homo sapiens, K-562R, imatinib-resistant K562R, read-out: IC50 on tumor cell proliferation, K562R cells.
Data set [8] is described as follows: Pharmacokinetics and bioavailability in rats. In kind it is in vivo. The conditions noted are these: SD rats; corresponding pharmaceutical acceptable salt forms. In a few lines: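 Rats dosed, heparinized blood sampled at set times, plasma stored at -20 °C, acetonitrile-precipitated and analyzed by HPLC-MS. Compartmental and non-compartmental parameters derived; bioavailability from AUC.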

Another data set has as its system BCR-ABL T315I mutant. To be noted: cited from earlier work.

Entries after “also recorded” stand apart in the source; their conditions may differ. Structures can show the parent of a compound that is named as a salt. A value given as a limit tells only on which side of the number the result lay.

For the compound `Cc1ccc(NC(=O)c2ccc(CN3CCN(C)CC3)cc2)cc1Nc1nccc(-c2cccnc2)n1` [STI571, Imatinib mesylate], the “effect on cells with c-KIT D816V point mutation” value in data set [1] is “cannot inhibit proliferation; also recorded: no effect”.
Take `Cc1cn(-c2cc(NC(=O)c3ccc(C)c(C#Cc4cnc5[nH]ncc5c4)c3)cc(C(F)(F)F)c2)cn1` [D767, 3-(2-(1H-pyrazolo[3,4-b]pyridin-5-yl)ethynyl)-4-methyl-N-(3-(4-methyl-1H-imidazol-1-yl)-5-(trifluoromethyl)phenyl)benzamide]: the IC50 was 0.208 nM in data set [2]; 11.8 nM in [3]; over 100 nM in [4]; over 100 nM in data set [5]; over 100 nM in the data set on U937 Cell line; 89 nM in [7]. Moreover, the GI50 in [6] is 4.24 nM. In data set [8], the “pharmacokinetics parameters, overall judgement” value is recorded as “adequate pharmacokinetics parameters”.
With `Cc1cn(-c2cc(NC(=O)c3ccc(C)c(Nc4nccc(-c5cccnc5)n4)c3)cc(C(F)(F)F)c2)cn1` [AMN107, Nilotinib], the “effect on BCR-ABL T315I mutant” value in the data set on BCR-ABL T315I mutant is given as “neither AMN107 nor BMS-354825 have effect”. The “effect on cells with c-KIT D816V point mutation” value in data set [1] is reported as “no effect”.
